Data taken from ChEMBL document CHEMBL5653631, “A Potent and Selective ULK1 Inhibitor Suppresses Autophagy and Sensitizes Cancer Cells to Nutrient Stress” (iScience, 2018).

Experiments:
[1] = molecular target: T1, Tyrosine-protein kinase JAK3 (Homo sapiens) (UniProt P52333); experiment: Inhibition of human recombinant JAK3 at 40 nM in presence of ATP by radiometric assay relative to control
T1 sequence (whole entry): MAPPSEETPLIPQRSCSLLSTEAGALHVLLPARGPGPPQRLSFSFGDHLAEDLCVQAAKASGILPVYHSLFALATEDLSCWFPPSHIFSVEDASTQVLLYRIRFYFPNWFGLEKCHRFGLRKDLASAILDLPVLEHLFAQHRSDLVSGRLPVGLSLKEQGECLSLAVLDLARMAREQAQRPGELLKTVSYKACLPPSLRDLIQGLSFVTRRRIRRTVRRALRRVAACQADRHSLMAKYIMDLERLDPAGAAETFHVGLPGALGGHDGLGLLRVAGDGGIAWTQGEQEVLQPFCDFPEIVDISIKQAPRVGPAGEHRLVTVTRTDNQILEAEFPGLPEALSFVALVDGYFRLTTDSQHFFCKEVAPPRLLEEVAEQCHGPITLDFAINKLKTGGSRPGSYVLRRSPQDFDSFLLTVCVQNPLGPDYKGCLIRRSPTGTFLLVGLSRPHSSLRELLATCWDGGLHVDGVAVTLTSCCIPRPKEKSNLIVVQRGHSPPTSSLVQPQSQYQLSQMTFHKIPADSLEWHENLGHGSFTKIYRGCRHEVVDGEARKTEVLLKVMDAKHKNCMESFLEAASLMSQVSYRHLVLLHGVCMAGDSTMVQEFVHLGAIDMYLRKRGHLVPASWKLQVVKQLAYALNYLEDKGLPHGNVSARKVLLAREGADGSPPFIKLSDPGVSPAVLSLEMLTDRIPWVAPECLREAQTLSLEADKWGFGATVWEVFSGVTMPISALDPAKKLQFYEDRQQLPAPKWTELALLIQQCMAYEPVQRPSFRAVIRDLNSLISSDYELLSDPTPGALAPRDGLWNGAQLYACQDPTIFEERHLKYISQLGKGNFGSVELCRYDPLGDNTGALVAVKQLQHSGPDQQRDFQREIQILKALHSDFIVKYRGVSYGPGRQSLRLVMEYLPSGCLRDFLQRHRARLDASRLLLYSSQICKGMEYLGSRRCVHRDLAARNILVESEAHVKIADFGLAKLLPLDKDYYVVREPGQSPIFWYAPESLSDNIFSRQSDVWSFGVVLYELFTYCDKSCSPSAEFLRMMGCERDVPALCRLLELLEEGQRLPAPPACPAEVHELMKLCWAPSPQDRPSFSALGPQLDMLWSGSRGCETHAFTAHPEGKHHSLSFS

[2] = molecular target: TGF-beta receptor type-2 (Homo sapiens) (UniProt P37173); experiment: Inhibition of human recombinant TGFbR2 at 40 nM in presence of ATP by radiometric assay relative to control
TGF-beta receptor type-2 (Homo sapiens), sequence (P37173 whole entry): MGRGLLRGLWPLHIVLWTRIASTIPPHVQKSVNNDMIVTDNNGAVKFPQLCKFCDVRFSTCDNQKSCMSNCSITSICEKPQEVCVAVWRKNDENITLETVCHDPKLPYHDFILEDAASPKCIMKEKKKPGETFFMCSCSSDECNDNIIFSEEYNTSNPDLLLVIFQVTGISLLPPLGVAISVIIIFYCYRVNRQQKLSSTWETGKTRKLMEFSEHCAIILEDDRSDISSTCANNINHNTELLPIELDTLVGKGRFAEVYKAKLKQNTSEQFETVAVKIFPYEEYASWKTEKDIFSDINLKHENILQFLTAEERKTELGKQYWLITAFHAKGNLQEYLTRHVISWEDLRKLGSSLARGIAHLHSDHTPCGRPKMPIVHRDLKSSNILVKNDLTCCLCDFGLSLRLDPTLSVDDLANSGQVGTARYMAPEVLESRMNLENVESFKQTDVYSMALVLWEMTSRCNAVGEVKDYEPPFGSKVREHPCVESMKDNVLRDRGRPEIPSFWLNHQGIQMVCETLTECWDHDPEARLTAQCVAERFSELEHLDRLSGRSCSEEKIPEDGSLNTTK

[3] = molecular target: T2, Dual specificity protein kinase TTK (Homo sapiens) (UniProt P33981); experiment: Inhibition of human recombinant TTK at 40 nM in presence of ATP by radiometric assay relative to control
T2 sequence (whole entry): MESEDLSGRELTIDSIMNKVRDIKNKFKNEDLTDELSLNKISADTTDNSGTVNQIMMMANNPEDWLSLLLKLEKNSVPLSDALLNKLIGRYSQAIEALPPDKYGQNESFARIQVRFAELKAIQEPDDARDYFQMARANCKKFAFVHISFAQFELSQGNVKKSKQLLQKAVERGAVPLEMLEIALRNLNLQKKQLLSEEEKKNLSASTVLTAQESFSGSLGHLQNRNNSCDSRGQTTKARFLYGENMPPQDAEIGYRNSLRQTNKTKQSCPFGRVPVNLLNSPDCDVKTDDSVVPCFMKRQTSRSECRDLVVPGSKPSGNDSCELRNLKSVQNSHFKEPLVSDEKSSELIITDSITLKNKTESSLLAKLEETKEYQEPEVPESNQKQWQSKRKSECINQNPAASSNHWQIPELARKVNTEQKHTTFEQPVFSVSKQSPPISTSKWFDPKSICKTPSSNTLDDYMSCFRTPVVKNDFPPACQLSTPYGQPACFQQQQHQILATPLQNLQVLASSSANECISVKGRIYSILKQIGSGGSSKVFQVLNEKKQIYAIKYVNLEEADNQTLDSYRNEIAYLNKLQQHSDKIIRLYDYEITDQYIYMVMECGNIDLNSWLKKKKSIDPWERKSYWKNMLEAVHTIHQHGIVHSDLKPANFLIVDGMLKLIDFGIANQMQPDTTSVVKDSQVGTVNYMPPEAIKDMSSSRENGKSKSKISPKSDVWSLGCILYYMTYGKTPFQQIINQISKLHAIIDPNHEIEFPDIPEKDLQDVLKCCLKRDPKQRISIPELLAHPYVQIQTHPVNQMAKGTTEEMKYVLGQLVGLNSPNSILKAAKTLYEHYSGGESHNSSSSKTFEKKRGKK

Homo sapiens = species on record: Homo sapiens; experiment: Inhibition of human recombinant p70S6K at 40 nM related to control ULK1
U2OS = experiment: cells; conditions: Homo sapiens
Description: Inhibition of autophagy in human U2OS cells assessed as BafA1-induced LC3B-II accumulation preincubated with compound for 3 hrs and followed by BafA1 induction and measured after 1.5 hrs by immunoblotting analysis

[4] = molecular target: T3, Serine/threonine-protein kinase Nek3 (Homo sapiens) (UniProt P51956); experiment: Inhibition of human recombinant NEK3 at 15 nM in presence of ATP by radiometric assay relative to control
T3 sequence (whole entry): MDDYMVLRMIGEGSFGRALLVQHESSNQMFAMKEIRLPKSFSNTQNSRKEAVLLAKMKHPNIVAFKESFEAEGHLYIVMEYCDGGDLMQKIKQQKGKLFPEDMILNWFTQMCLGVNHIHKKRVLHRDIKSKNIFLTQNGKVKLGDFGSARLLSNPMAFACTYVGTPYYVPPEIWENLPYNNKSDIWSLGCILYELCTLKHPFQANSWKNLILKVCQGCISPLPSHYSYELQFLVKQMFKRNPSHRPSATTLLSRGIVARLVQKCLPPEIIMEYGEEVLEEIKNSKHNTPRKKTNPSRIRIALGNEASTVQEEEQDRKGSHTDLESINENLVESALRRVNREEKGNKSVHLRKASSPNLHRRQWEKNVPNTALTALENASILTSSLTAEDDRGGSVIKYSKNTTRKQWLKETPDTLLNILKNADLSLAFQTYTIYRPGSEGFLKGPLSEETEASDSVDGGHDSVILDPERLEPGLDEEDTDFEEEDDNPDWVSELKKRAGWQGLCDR

SMILES | inhibition [1] | inhibition [2] | inhibition [3] | fold change (FC) (Homo sapiens) | EC50 (U2OS) | inhibition [4]
O=C(N[C@@H](C1CC1)C(F)(F)F)c1cc(-c2cnn3cc(-c4ccc(F)cc4)cnc23)cs1 | 0% | 47% | 33% | 0.03 | 700 nM | –
CC(C)[C@H](NC(=O)c1cc(-c2cnn3cc(-c4ccc(OCCN5CCCCC5)cc4)cnc23)cs1)C(F)(F)F | – | – | – | – | – | 1%
